According to patent publication US20050234043A1, “ACE inhibitor-vasopressin antagonist combinations” (priority 2000, published 2005):
Where a name gives a salt, the structure may show the parent alone.

Tests used:
[1] = system: AVP-induced pressor response (V1A antagonism); assay: Antagonism of AVP-induced pressor response, oral, rats; format: in vivo
[2] = system: AVP-induced pressor response (V1A antagonism); assay: Antagonism of AVP-induced pressor response, IV, dogs; format: in vivo
[3] = system: urinary output (V2 antagonism); assay: Urinary output and osmolality in conscious dogs; format: in vivo
[4] = system: dogs with heart failure induced by rapid right ventricular pacing; assay: Heart failure induced by rapid right ventricular pacing; format: in vivo; details: IV 0.1 mg/kg
[5] = Oral pharmacokinetics in rat; format: in vivo
Excerpt: (§1) There is a marked food effect with absorption reduced by >50% in dogs after a meal.

[6] = Oral pharmacokinetics in dog; format: in vivo
Excerpt: as §1

dogs [7] = assay: 2- and 13-week oral toxicity studies in dogs; format: in vivo
rats [8] = assay: Reproductive performance / fertility studies in rats; format: in vivo
rats [9] = assay: Teratogenicity in rats; format: in vivo
rabbits = assay: Teratogenicity in rabbits; format: in vivo
bacteria = assay: Mutagenicity in bacteria; format: cell-based
human lymphocytes = assay: Clastogenicity in human lymphocytes in vitro; format: cell-based
bone marrow of rats = assay: Clastogenicity in bone marrow of rats; format: in vivo
rats [10] = details: rat, in vivo, iv, 2.5 mg/kg
dogs [11] = details: dog, in vivo, iv, 2 mg/kg
[12] = system: AVP-induced platelet aggregation (V1A antagonist activity); assay: AVP-induced platelet aggregation in Phase 1 subjects; format: in vivo, human; details: 20 mg/day orally or 2.5 mg IV
[13] = system: AVP-induced dermal vasoconstriction; assay: AVP-induced dermal vasoconstriction in Phase 1 subjects; format: in vivo, human; details: 50 mg IV
[14] = system: aquaretic action (V2-receptor antagonism); assay: Aquaretic action in normal subjects; format: in vivo, human
subjects = assay: Safety in Phase 1 subjects; format: in vivo, human
Excerpt: Other adverse events included flushes, a sensation of cold extremities, abdominal complaints, abnormal stools, syncope, dizziness, palpitations, and postural hypotension. Three subjects who received YM087 and one subject who received placebo developed minor, reversible leukopenia. […] These observations were considered related to antagonism of V2 receptors and not a safety concern. Vital signs (blood pressure and heart rate) were unaffected by YM087.

[15] = system: patients with NYHA Class III/IV heart failure; assay: Double-blind placebo-controlled IV dose-response study of cardiopulmonary hemodynamics in NYHA Class III/IV heart failure patients on ACE inhibitor background; format: in vivo, human; details: CHF patients
Protocol: These patients have advanced CHF/LV dysfunction. Patients must be receiving background therapy of diuretics, ACE inhibitors, and optionally digoxin and/or β-blocker; patients will be stratified as to whether they are receiving concomitant β-blocker treatment. […] Patients should take their daily dose of concomitant heart failure medications within 2 hours of catheter insertion. No additional doses of background heart failure medications should be administered during the study treatment phase. After insertion of a balloon-floatation pulmonary artery catheter, serial measurements will be obtained over an 8- to 18-hour baseline and stabilization period. […] The mean baseline PCWP in this study group was 24.2 mmHg. The mean baseline CI was 2.1 L/min/m^2. […] Fluid intake will be restricted to 250 mL every 2 hours (except at time of IV infusion) from time of insertion of Swan-Ganz catheter and throughout the treatment period. […] Serum electrolytes, BUN, creatinine, and serum osmolality will be measured at baseline and 4 and 12 hours posttreatment. Clinical laboratory and vasopressin plasma levels will be measured at baseline and 12 hours postdrug administration. […] Patients meeting baseline eligibility criteria (CI≦2.6 L/min/m^2; PCWP≧16 mmHg) on successive readings at least 30 minutes apart during 2 hours prior to study drug administration will enter the treatment phase. […] Clinical laboratory and vasopressin plasma levels will be measured 12 hours postdose. […] Serum electrolytes, BUN, creatinine, serum osmolality will be measured at 4 and 12 hours posttreatment. […] For this study, hemodynamic efficacy parameters of PCWP, CI, SVR, and PVR will be evaluated in terms of their response profile. The response profile will be assessed in terms of peak change, and AUC delimited by the parameter change from baseline and measurement times. […] If measurements are missing at certain times, the AUC will be calculated using all other available observations. Dose response over the treatment groups will be assessed for selected measures. […]

rats [16] = details: female rats, 13-week repeated oral dose
[17] = Pharmacokinetics in healthy subjects (Phase 1); details: human

**Q.** Which “dose that reduced the AVP response by 50% (ID50)” value [1] does the source give for Cc1nc2c([nH]1)-c1ccccc1N(C(=O)c1ccc(NC(=O)c3ccccc3-c3ccccc3)cc1)CC2 [YM087, N-[4-(2-methyl-,4,5,6-tetrahydrornidazo[4,5-d][1]benzazepin-6-ylcarbonyl)phenyl]biphenyl-2-carboxamide hydrochloride] here?
**A.** 0.32 mg/kg

**Q.** And the “ID50, AVP-induced pressor response” value [2]?
**A.** 0.026 mg/kg

**Q.** And the urinary output ([3]; conscious dogs, oral 0.03 to 0.3 mg/kg, dose-related)?
**A.** increased urinary output

**Q.** And the urinary osmolality ([3]; conscious dogs, oral 0.03 to 0.3 mg/kg, reduced from 1500)?
**A.** < 100 mOsm/kg H2O

**Q.** What about the “effect on urinary sodium (Na) or potassium (K) excretion” value ([3]; unlike furosemide) of the same compound?
**A.** little or no effect

**Q.** And the cardiac function [4]?
**A.** significantly improved the depressed cardiac function

**Q.** And the diuresis [4]?
**A.** produced a water diuresis

**Q.** What about the “time to peak concentrations” value [5] of the same compound?
**A.** 0.5 h

**Q.** And the “time to peak concentrations” value [6]?
**A.** 1 h

**Q.** And the peripheral blood counts (dogs [7]; affected dogs, 13-week study)?
**A.** Decreased peripheral erythrocyte, leukocyte, and/or platelet counts

**Q.** And the “reversibility of bone marrow and peripheral blood changes” value (dogs [7]; dogs)?
**A.** reversible

**Q.** And the bone marrow histopathology (dogs [7]; dogs, 2- and 13-week oral studies)?
**A.** Histopathologic changes in bone marrow were observed

**Q.** And the female fertility (rats [8]; female rats, 100 mg/kg orally for 2 weeks prior to mating with untreated males)?
**A.** reduced fertility index, increased implantation loss, and decreased live fetuses

**Q.** And the “reproductive performance of male rats” value (rats [8]; male rats)?
**A.** did not affect

**Q.** What about the teratogenicity (rats [9]) of the same compound?
**A.** not teratogenic

**Q.** And the teratogenicity (rabbits)?
**A.** not teratogenic

**Q.** And the mutagenicity (bacteria)?
**A.** not mutagenic

**Q.** And the clastogenicity (human lymphocytes)?
**A.** not clastogenic

**Q.** And the clastogenicity (bone marrow of rats)?
**A.** not clastogenic

**Q.** What about the toxicity (rats [10]) of the same compound?
**A.** No toxicity was observed

**Q.** What about the toxicity (dogs [11]) of the same compound?
**A.** No toxicity was observed

**Q.** And the AVP-induced platelet aggregation [12]?
**A.** Inhibition

**Q.** And the AVP-induced dermal vasoconstriction [13]?
**A.** Total inhibition

**Q.** What about the “duration of increased urine production rate postdosing” value ([14]; IV 50 mg/day) of the same compound?
**A.** ≤ 6 h

**Q.** What about the “duration of increased urine production rate postdosing” value ([14]; IV doses up to 250 μg/kg) of the same compound?
**A.** up to 3 hours

**Q.** What about the “tolerability of aquaretic effects” value ([14]; normal subjects, 120 mg QD or 60 mg BID orally or 50 mg IV) of the same compound?
**A.** too uncomfortable in normal subjects to be tolerable

**Q.** What about the “dose at which aquaretic action with decrease in urine osmolarity starts” value ([14]; normal subjects, IV) of the same compound?
**A.** 0.05 mg/kg

**Q.** What about the “dose at which aquaretic action with decrease in urine osmolarity starts” value ([14]; normal subjects, oral) of the same compound?
**A.** 15 mg

**Q.** And the overall safety (subjects; approximately 250 subjects treated)?
**A.** no major safety concerns were identified

**Q.** And the “urinary and plasma osmolarity” value (subjects; at higher doses, with or without an increase in plasma sodium)?
**A.** urinary osmolarity decreased and plasma osmolarity increased

**Q.** What about the “biochemical or hematological laboratory parameters” value (subjects; human, in vivo) of the same compound?
**A.** No drug-related trend was observed

**Q.** And the “vital signs (blood pressure and heart rate)” value (subjects; human, in vivo)?
**A.** unaffected

**Q.** What about the serious adverse event (subjects; one patient with severe CHF, 80 mg/day for 4 days, relation to study drug could not be excluded) of the same compound?
**A.** generalized tonic clonic seizure

**Q.** What about the “number of subjects who developed minor, reversible leukopenia” value (subjects; one subject on placebo also) of the same compound?
**A.** Three

**Q.** And the “most frequent adverse events” value (subjects; regardless of treatment association)?
**A.** mild or moderate thirst and mild headache

**Q.** And the “pulmonary capillary wedge pressure (PCWP)” value ([15]; IV 10, 20 or 40 mg, 85% receiving ACE inhibitor, FIG. 1)?
**A.** significant reductions

**Q.** And the “right atrial pressure (RAP)” value ([15]; IV 10, 20 or 40 mg, 85% receiving ACE inhibitor, FIG. 2)?
**A.** significant reduction

**Q.** What about the “hemodynamic effect as add-on therapy to ACE inhibitors” value ([15]; add-on to normal treatment with ACE inhibitors) of the same compound?
**A.** surprisingly favorable hemodynamic effect

**Q.** And the uterine weights (rats [16])?
**A.** decreased at all doses

**Q.** And the half-life ([17]; plasma)?
**A.** 4 to 5 h

**Q.** And the bioavailability ([17]; plasma, oral)?
**A.** 43 to 59%

**Q.** And the Tmax ([17]; plasma, po)?
**A.** ~1 h

**Q.** What about the “plasma levels on repeated dosing” value ([17]; repeated BID oral doses, 60 mg) of the same compound?
**A.** unexpectedly high plasma levels after the second dose
